“Also recorded” adds a separate entry of the source.
Legend:
Type in all cases: cell-based
Escherichia coli O13 = system: Escherichia coli O13
[1] = system: Legionella pneumophila serogroup 1; settings: 10 mM compound, 37° C., 24 hours, click with CR110-CCH, confocal microscopy
Escherichia coli K12 = settings: E. coli K12; 10 mM compound, 37° C., 18 hours; click with CR110-CCH; confocal microscopy
[2] = system: Legionella gormanii (Fluoribacter gormanii)

Row | SMILES | detection / labelling signal of bacteria (Escherichia coli O13) | detection / labelling signal of bacteria [1] | detection / labelling signal of bacteria (Escherichia coli K12) | detection / labelling signal of bacteria [2]
1 | C=C(C[C@@H](O)[C@H]1OC(C)(C)O[C@@H]1[C@H](O)CN=[N+]=[N-])C(=O)OCC [Compound 8a, ethyl (4R)-4-{(4R,5R)-5-[(R)-2-azido-1-hydroxyethyl]-2,2-dimethyl-1,3-dioxolan-4-yl)-4-hydroxy-2-methylenebutanoate] | detected; also recorded: clear labelling signal | detected; also recorded: clear labelling signal | detected; also recorded: clear labelling signal | detected; also recorded: clear labelling signal
2 | C=C(C[C@H](O)[C@H]1OC(C)(C)O[C@@H]1[C@H](O)CN=[N+]=[N-])C(=O)OCC [Compound 8b, ethyl (4S)-4-{(4R,5R)-5-[(R)-2-azido-1-hydroxyethyl]-2,2-dimethyl-1,3-dioxolan-4-yl)-4-hydroxy-2-methylenebutanoate] | detected; also recorded: clear labelling signal | detected; also recorded: clear labelling signal | detected; also recorded: clear labelling signal | detected; also recorded: clear labelling signal
